Test results as given in paper PMC3202988 (Nature chemical biology, 2011).

Target: T1, OGA (O-GlcNAcase) (Homo sapiens, UniProt O60502)
T1 sequence (O60502 1-916): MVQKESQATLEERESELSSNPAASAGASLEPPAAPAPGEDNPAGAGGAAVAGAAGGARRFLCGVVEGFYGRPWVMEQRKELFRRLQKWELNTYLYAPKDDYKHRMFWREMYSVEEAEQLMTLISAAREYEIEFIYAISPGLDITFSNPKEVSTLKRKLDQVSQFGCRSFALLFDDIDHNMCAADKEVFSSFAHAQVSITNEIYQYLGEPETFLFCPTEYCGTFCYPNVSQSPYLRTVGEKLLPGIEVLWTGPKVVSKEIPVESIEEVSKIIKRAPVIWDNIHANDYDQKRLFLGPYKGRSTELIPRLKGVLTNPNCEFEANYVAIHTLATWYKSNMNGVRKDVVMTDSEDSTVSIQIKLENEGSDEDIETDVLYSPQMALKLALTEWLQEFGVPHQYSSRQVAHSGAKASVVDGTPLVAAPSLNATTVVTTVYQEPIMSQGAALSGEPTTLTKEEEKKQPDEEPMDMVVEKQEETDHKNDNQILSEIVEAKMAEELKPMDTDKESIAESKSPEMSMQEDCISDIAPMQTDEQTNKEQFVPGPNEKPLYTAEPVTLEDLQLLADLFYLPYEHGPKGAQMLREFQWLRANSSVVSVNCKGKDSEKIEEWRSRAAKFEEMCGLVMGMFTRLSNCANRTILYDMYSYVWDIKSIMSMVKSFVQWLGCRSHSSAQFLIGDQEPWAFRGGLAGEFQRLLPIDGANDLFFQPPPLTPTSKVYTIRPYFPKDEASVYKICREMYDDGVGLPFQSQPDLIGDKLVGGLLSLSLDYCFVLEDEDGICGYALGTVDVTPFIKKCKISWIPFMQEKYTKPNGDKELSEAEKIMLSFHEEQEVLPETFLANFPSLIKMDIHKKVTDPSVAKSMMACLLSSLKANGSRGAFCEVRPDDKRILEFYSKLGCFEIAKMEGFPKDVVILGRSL
Test: Michaelis-Menten hydrolysis kinetics, absorbance at […] nm
Type: biochemical

## COc1ccc(O[C@@H]2O[C@H](CO)[C@@H](O)[C@H](O)[C@H]2NC(C)=O)cc1 [compound 6, para-methoxyphenyl 2-acetamido-2-deoxy-β-D-glucopyranoside]
  Michaelis-Menten hydrolysis kinetics, absorbance at 296 nm: 40.7 μmol s^−1 mg^−1 M^−1

## COc1ccc(O[C@@H]2S[C@H](CO)[C@@H](O)[C@H](O)[C@H]2NC(C)=O)cc1 [compound 7, para-methoxyphenyl 2-acetamido-2-deoxy-5-thio-β-D-glucopyranoside]
  Michaelis-Menten hydrolysis kinetics, absorbance at 296 nm: 8.1 μmol s^−1 mg^−1 M^−1
